Literature values as cited in article PMC7395068, “The evolution of strategies to minimise the risk of human drug-induced liver injury (DILI) in drug discovery and development” (Archives of Toxicology, 2020).
Where two headings read alike, the source gives them in different places.

Key:
[1] = tested on: THLE-Null and THLE-3A4 cells; conditions: In vitro Assay; ref Gustafsson 2014; cited from earlier work
rBsep [2] = tested on: rBsep; parameters: method as in Dawson 2012; conditions: In vitro Assay; ref Dawson 2012; cited from earlier work
[3] = ref Chen 2016; cited from earlier work
[4] = tested on: HepG2 cells, primary human hepatocytes; conditions: In vitro Assay; ref Garside 2014; cited from earlier work
[5] = cited from earlier work
[6] = tested on: THLE or HepG2 cells, isolated mitochondria, BSEP; conditions: In vitro Assay; ref Aleo 2019; cited from earlier work
human hepatocytes = conditions: In vitro Assay; ref Xu 2008; cited from earlier work
PHH spheroids = conditions: In vitro Assay; ref Vorrink 2018; cited from earlier work
Upcyte human hepatocytes = conditions: In vitro Assay; ref Tolosa 2019; cited from earlier work
rBsep [7] = conditions: In vitro Assay; ref Dawson 2012; cited from earlier work
HepG2 cells [8] = conditions: In vitro Assay; ref O'Brien 2006; cited from earlier work
HepG2 cells [9] = conditions: In vitro Assay; ref Persson 2013; cited from earlier work

Row | SMILES | THLE-Null [1] | THLE-Null/3A4 [1] | Inhibition of rBsep cutoff<1& cmax u>.2 (rBsep [2]) | Inhibition of rBsep cutoff<3 (rBsep [2]) | DILI +VE (5-8), DILI -VE (-4) [3] | DILI severity category [3] | Cluster 1-6 +VE Assay [4] | In vivo DILI ([5]; ref Dawson 2012) | In vivo DILI ([5]; ref Garside 2014) | In vivo DILI ([5]; ref Gustafsson 2014) | Partition Hybrid HRM Score [6] | Ro2 Hybrid HRM Score [6] | Structural based (HCI) (human hepatocytes) | In vivo DILI ([5]; ref Aleo 2019) | In vivo DILI ([5]; ref Xu 2008) | Structural based (HCI) (HepG2 cells [8]) | In vivo DILI ([5]; ref O'Brien 2006) | also measured
1 | Cc1onc(-c2c(Cl)cccc2Cl)c1C(=O)N[C@@H]1C(=O)N2[C@@H]1SC(C)(C)[C@@H]2C(=O)O [dicloxacillin] | -VE | -VE | -VE | +VE | +VE | vLess-DILI-Concern | +VE | +VE | +VE | +VE |  |  |  |  |  |  |  | 
2 | CCC(=O)O[C@H]1[C@H](O[C@@H]2[C@@H](C)[C@H](O[C@H]3C[C@@](C)(OC)[C@@H](O)[C@H](C)O3)[C@@H](C)C(=O)O[C@H](CC)[C@@](C)(O)[C@H](O)[C@@H](C)C(=O)[C@H](C)C[C@@]2(C)O)O[C@H](C)C[C@@H]1N(C)C [erythromycin estolate] |  |  | +VE | +VE |  |  |  | +VE |  |  | +VE | +VE | +VE | +VE | +VE |  |  | 
3 | COc1ccc(Cl)cc1C(=O)NCCc1ccc(S(=O)(=O)NC(=O)NC2CCCCC2)cc1 [glibenclamide] |  |  | +VE | +VE |  |  | +VE |  |  |  |  |  |  |  |  |  |  | 
4 | CC(C)NCC(O)c1ccc(O)c(O)c1 (stereo not drawn) [isoproterenol] | -VE | -VE |  |  | -VE | vNo-DILI-Concern | +VE | -VE | -VE | -VE | -VE | -VE | -VE | -VE | -VE | -VE | -VE | hLiMTs ATP <20 x Cmax (PHH spheroids): -VE; Upcytes multi donor assay 14day data (Upcyte human hepatocytes): -VE; Inhibition of rBsep cutoff<1& cmax u>.2 (rBsep [7]): -VE; Inhibition of rBsep cutoff<3 (rBsep [7]): -VE; Cluser analysis (HepG2 cells [9]): -VE; Structural based (HCI) (HepG2 cells [9]): -VE; In vivo DILI ([5]; ref Persson 2013): -VE; In vivo DILI ([5]; ref Tolosa 2019): -VE; In vivo DILI ([5]; ref Vorrink 2018): -VE
5 | COc1ccc(C(=O)NCc2cccnc2)cc1C(=O)NCc1cccnc1 [picotamide] |  |  | -VE | -VE |  |  |  | -VE |  | -VE |  |  |  |  |  | +VE (lowest HCI endpoint IC50 (or in the absence of dose–response < 100 µM) < 30 × total human plasma exposure levels (Cmax.tot)) | -VE | 
